Reference: paper PMC2994747, “Molecular Characterization of c-Abl/c-Src Kinase Inhibitors Targeted against Murine Tumour Progenitor Cells that Express Stem Cell Markers” (PLoS ONE, 2010)

How the values were obtained:
[1] = system: CaCo2; assay: Western blot, semi-quantitative protein expression; type: cell-based, human
Description: (§1) For the Western Blot analysis, cells were rinsed and lysed as previously described. An amount of 25 µg protein was used for SDS-PAGE. Antibodies for c-Abl (sc-131), Actin (sc-1616), Cdc2-p34 (sc-8395), EPS15 (sc-1840), FAK (sc-558), c-Fos (sc-52), p38 (sc-7972), p53 (sc-6243) and STAT5 (sc-835x) were obtained from Santa Cruz (Santa Cruz Biotechnology, Heidelberg, Germany), while c-Src (2109) and phospho-Src Y416 (2101) were purchased from Cell Signaling (Cell Signaling Technology, Frankfurt a. M., Germany). The EGFR (06-847), phospho-EGFR Y992 (07-821) and phospho-EGFR Y1045 (04-284) stem from Upstate (Upstate, Schwalbach, Germany) and the hnRNP-K (A300-676A) from Bethyl Labs (Bethyl Laboratories, Montgomery, Texas, USA). Finally p73 (IMG-246) was supplied by Imgenex (Imgenex, Hamburg, Germany). Depending on the primary antibody the secondary antibodies were either horseradish peroxidase-conjugated anti-mouse (AP 160P), anti-rabbit (AP 132P) or anti-sheep (AP 147P) (Chemicon, Schwalbach, Germany).
(§2) Semi-quantitative analysis were carried out with Kodak 1D Image Analysis Software in reference to the vehicle treated control cells (see supplementary table S7).

[2] = system: A549; assay: Western blot, semi-quantitative protein expression; type: cell-based, human
Description: as §1, §2

[3] = system: all tested cell lines; assay: Caspase-Glo 3/7 activity assay, all tested cell lines; type: cell-based; settings: IC50 concentration, 24 h; vs vehicle
Description: According to instructions, Caspase-Glo® 3/7 assay (Promega GmbH, Mannheim, Germany) was used for monitoring caspase activity. Briefly, the same volume Caspase-Glo reagent as culture medium was added and incubated 1 h at room temperature. Luminescence was read with a Victor3 Wallac 1420 Multilabel counter (PerkinElmer, Rodgau, Germany). Background absorbance (medium only) was subtracted and the data given as percent of vehicle controls.

[4] = system: A2C12; assay: Western blot, semi-quantitative protein expression; type: cell-based, mouse
Description: as §1, §2

[5] = system: BetaD5; assay: Western blot, semi-quantitative protein expression; type: cell-based, mouse
Description: as §1, §2

[6] = system: CaCo2; assay: Whole genome expression analysis (Affymetrix microarray); type: cell-based, human
Description: The cells were harvested and RNA was isolated using RNeasy Mini Kit (Qiagen, Hilden, Germany) according to the instructions of the manufacturer. The isolated RNA (250 ng) was processed further using standard protocols as described recently with the exception of the 3′ IVT Express Kit (Affymetrix, High Wycombe, UK) that was utilized according to instructions. Quality control of cRNA was done with the Agilent 2100 Bioanalyzer (Agilent Tech according to manufacturer's protocols. Following fragmentation, cRNA of each sample was hybridized to Affymetrix GeneChip® Mouse Genome 430 2.0 or Human Genome U133 Plus 2.0 and scanned with an Affymetrix 3000 7G scanner.
The resultant data was normalized by Probe Logarithmic Intensity Error Estimation (PLIER) algorithm. Statistical analysis was carried out with the ArrayTrack software (National Center for Toxicological Research/FDA, Jefferson, AR, USA) using SAM algorithm.

Q: What does the source list for `Fc1ccccc1CNc1ncnc2c1cnn2CC(Cl)c1ccc(Br)cc1` (stereo not shown) [Si162]?
A: Actin protein expression [1]: 116; Cdc2-p34 protein expression [1]: 43; EGFR Y992-p protein expression [1]: 178; EGFR Y1045-p protein expression [1]: 131; EPS15 protein expression [1]: 42; FAK protein expression [1]: 52; STAT5 protein expression [1]: 69; c-Abl protein expression [1]: 114; c-Fos protein expression [1]: 35; c-Src Y416-p protein expression [1]: 213; c-Src protein expression [1]: 88; hnRNP-K protein expression [1]: 62; p38 protein expression [1]: 29; p53 protein expression [1]: 55; p73 protein expression [1]: 43; Actin protein expression [2]: 62; Cdc2-p34 protein expression [2]: 5.47; EGFR Y1045-p protein expression [2]: 7; EGFR protein expression [2]: 0.418; EPS15 protein expression [2]: 10; FAK protein expression [2]: 46; STAT5 protein expression [2]: 17; c-Abl protein expression [2]: 8.56; c-Fos protein expression [2]: 10; c-Src protein expression [2]: 49; hnRNP-K protein expression [2]: 39; p38 protein expression [2]: 19; p53 protein expression [2]: 48; p73 protein expression [2]: 10; c-Src autophosphorylation (Tyr416), in words ([2]; IC50 concentration, 96 h): inhibition of c-Src autophosphorylation; Change of caspase-3/7 activity in all cell lines [3]: increased; Actin protein expression [4]: 99; EGFR Y992-p protein expression [4]: 16; EGFR Y1045-p protein expression [4]: 0.417; EGFR protein expression [4]: 23; EPS15 protein expression [4]: 104; FAK protein expression [4]: 52; STAT5 protein expression [4]: 34; c-Abl protein expression [4]: 50; c-Fos protein expression [4]: 60; c-Src protein expression [4]: 121; hnRNP-K protein expression [4]: 60; p38 protein expression [4]: 20; p53 protein expression [4]: 131; p73 protein expression [4]: 40; Actin protein expression [5]: 91; EGFR Y992-p protein expression [5]: 145; EGFR Y1045-p protein expression [5]: 733; EGFR protein expression [5]: 92; EPS15 protein expression [5]: 554; FAK protein expression [5]: 124; STAT5 protein expression [5]: 182; c-Abl protein expression [5]: 24; c-Fos protein expression [5]: 122; c-Src Y416-p protein expression [5]: 36; c-Src protein expression [5]: 110; hnRNP-K protein expression [5]: 20; p38 protein expression [5]: 39; p53 protein expression [5]: 443; c-Src autophosphorylation (Tyr416), in words ([5]; IC50 concentration, 96 h): inhibition of c-Src autophosphorylation; Cav1 (caveolin 1, caveolae protein, 22kDa) regulated gene, Si162 vs Ktr FC [6]: 2.45
